We go through eight compounds from patent US20230124862A1, “BISMUTH THIOL COMPOUNDS AND COMPOSITIONS AND METHODS OF TREATING MICROBIAL CO-INFECTIONS” (Microbion Corporation, priority 2020, published 2023).

Data set [1] has as its system M. abscessus complex. Kind of data set: MIC testing of CF isolates. It is filed as cell-based, Mycobacterium abscessus.
In data set [2] the test system is S. aureus. Kind of data set: Broth microdilution MIC (Example 11). It is filed as cell-based, Staphylococcus aureus. The settings on record: Staphylococcus aureus, ATCC 29213 / MSSA, S. aureus MMX 101 (ATCC 29213); QC; MSSA; read-out: MIC.
The subject of data set [3] is S. aureus. The conditions noted are these: S. aureus MMX 101 (ATCC 29213); cited from earlier work.
The test system of data set [4] is Enterococcus spp. Kind of data set: Broth microdilution MIC (Example 11). It is filed as cell-based, E. faecalis, E. faecium. The settings on record: Lev^R Cip^R Ery^R, read-out: MIC.
The test system of data set [5] is P. aeruginosa and A. baumannii. The settings on record: P. aeruginosa MMX 103 (ATCC 27853); CLSI QC ranges shown in parenthesis; cited from earlier work.
Data set [6] concerns Enterobacteriaceae. The settings on record: E. coli MMX 102 (ATCC 25922); CLSI QC ranges shown in parenthesis; cited from earlier work.
Data set [7] has as its system Gram-positive aerobic bacteria (S. aureus, MRSA, CA-MRSA). Kind of data set: MIC90 against 150 clinical isolates of Gram-positive aerobic bacteria. The conditions noted are these: S. aureus (50 isolates). Format: cell-based.
For data set [8], the system named is vancomycin-intermediate Staphylococcus aureus (VISA). Kind of data set: Broth microdilution MIC (Example 12). The conditions noted are these: Staphylococcus aureus, NRS 13 / VISA, all isolates except NRS 13; read-out: MIC values. It is filed as cell-based.
For data set [9], the system named is beta-hemolytic streptococci. Kind of data set: Broth microdilution MIC (Example 11). Format: cell-based, S. pyogenes, S. agalactiae. The conditions noted are these: ERY^R CC^R, read-out: MIC.
The format of data set [10] is physicochemical.
Data set [11] deals with Anaerobes (Bacteroides fragilis, Clostridium difficile). The data set can be described thus: Agar dilution MIC (Example 11). The settings on record: read-out: MIC. Format: cell-based. How it is done:
The susceptibility of anaerobic bacteria was determined by agar dilution using Brucella Agar (BD/BBL; Lot No. 5237692) supplemented with 5 μg/mL hemin (Sigma, St. Louis, Mo.; Lot No. 108K1088), 1 μg/mL Vitamin K1 and 5% (v/v) laked sheep blood (Cleveland Scientific, Bath, Ohio; Lot No. 322799).
Agar Dilution MIC Testing (Anaerobic Bacteria and Gonococci): MIC values for anaerobic bacteria were determined using a reference agar dilution method as described by CLSI (6). Organisms were grown at 35° C. in the Bactron II Anaerobic Chamber (Shel Lab, Cornelius, Oreg.) for approximately 48 hr prior to the assay. Drug dilutions and drug-supplemented agar plates were prepared manually per CLSI (6). The plates were allowed to stand at room temperature for 1 hr to allow the agar surface to dry and pre-reduced for approximately 1 hr in the anaerobe chamber prior to inoculation. Each isolate was suspended to the equivalent of a 0.5 McFarland standard in Brucella broth using a turbidity meter (Dade Behring MicroScan, West Sacramento, Calif.). Each bacterial cell suspension was then diluted 1:10 in Brucella broth and transferred to wells in a stainless steel replicator block which was used to inoculate the test plates. The prongs on the replicator deliver approximately 1-2 μl of inoculum to an agar surface. The resulting inoculum spots contained approximately 1×10^5 CFU/spot. After the inoculum dried, the inoculated drug-supplemented agar plates and no drug growth control plates were incubated at 35° C. for 42-48 hr in the anaerobe chamber. The MIC was read per CLSI guidelines (6).

For data set [12], the system named is Burkholderia cepacia complex. The data set can be described thus: Checkerboard FIC/FICI assay. It is filed as cell-based, Burkholderia spp.
Data set [13] concerns P. aeruginosa. The data set can be described thus: Checkerboard FIC/FICI assay. The settings on record: Tobramycin in combination with BisEDT. Format: cell-based, Pseudomonas aeruginosa.
The subject of data set [14] is Pseudomonas aeruginosa strain PA01. Kind of data set: Bacterial killing curves with and without CF patient sputum. Format: cell-based. The settings on record: tobramycin 1 μg/mL, 10% CF sputum, most time points.
Where [15] appears, read: non-reversing and total heat flow.
[16] abbreviates: B. cepacia 1793, Tobramycin in combination with BisEDT, by checkerboard.
The mark [17] stands for this setting: P. aeruginosa 6322, one value per panel row C-G.
The mark [18] stands for this setting: P. aeruginosa 6977, by checkerboard.
[19] abbreviates: P. aeruginosa 7745, by checkerboard.
[20] abbreviates: P. aeruginosa 9108, by checkerboard.

In brackets after ≈: the same amount, converted by molar mass. Several values for one entry are separate records, joined by “and”; a condition that tells them apart may be missing. Equal values may be shown once. Read-outs that look alike come from different tables or passages of the source.

Turning to `CC[C@H]1OC(=O)[C@H](C)[C@@H](O[C@H]2C[C@@](C)(OC)[C@@H](O)[C@H](C)O2)[C@H](C)[C@@H](O[C@@H]2O[C@H](C)C[C@H](N(C)C)[C@H]2O)[C@](C)(OC)C[C@@H](C)C(=O)[C@H](C)[C@@H](O)[C@]1(C)O` [CLR], the MIC is 1 µg/mL (≈ 1.34 µM) in data set [1] (M. abscessus/massiliense complex (AMT0068-40)); 1 µg/mL (≈ 1.34 µM) in data set [1] (M. abscessus/massiliense complex (AMT0119-7)); 2 µg/mL (≈ 2.67 µM) in [1] (M. abscessus/massiliense complex (AMT0493-2), AMK R); 1 µg/mL (≈ 1.34 µM) in data set [1] (M. abscessus/massiliense complex (AMT01130-8)); 2 µg/mL (≈ 2.67 µM) in [1] (M. abscessus/massiliense complex (AMT1539)); >32^1 ^ μg/mL in [1] (M. abscessus/massiliense complex (ATCL119977), Macrolide R (inducible)).

For the compound `CC(C)(O/N=C(\C(=O)N[C@@H]1C(=O)N2C(C(=O)[O-])=C(C[n+]3ccccc3)CS[C@H]12)c1csc(N)n1)C(=O)O` [Ceftazidime], the minimum inhibitory concentration (MIC) in data set [2] is 8 µg/mL (≈ 14.6 µM); in data set [4] (E. faecalis MMX 8960, VRE) it was greater than 32 µg/mL; in [4] (E. faecalis MMX 8961, VRE), greater than 32 µg/mL; in [4] (E. faecalis MMX 8962, VRE), greater than 32 µg/mL; in data set [4] (E. faecium MMX 485, VRE vanA), greater than 32 µg/mL; in [4] (E. faecium MMX 752, VRE vanA), greater than 32 µg/mL. Also, the “CLSI QC range of MIC” value in [3] is reported as “(4-16) μg/mL”. Moreover, the “MIC, CLSI QC range” value in [5] is “(1-4) μg/mL”; in data set [6], “(0.06-0.5) μg/mL”.

On to `C[C@@H](O)[C@H]1C(=O)N2C(C(=O)O)=C(SCCN=CN)C[C@H]12` [IPM], for which the figures for the MIC90 in data set [7] (CA-MRSA), in data set [7] (MRSA) and in data set [7] (MSSA) were 2 µg/mL (≈ 6.68 µM), greater than 8 µg/mL and 0.03 µg/mL (≈ 0.1 µM), respectively.

In the case of `C[C@H]1COc2c(N3CCN(C)CC3)c(F)cc3c(=O)c(C(=O)O)cn1c23` [Levofloxacin, reference compound], the MIC was greater than 4 µg/mL in [8]; 0.12 µg/mL (≈ 0.332 µM) in data set [2]; 0.25 µg/mL (≈ 0.692 µM) in [9] (Streptococcus agalactiae, S. agalactiae MMX 3741); 0.5 µg/mL (≈ 1.38 µM) in data set [9] (Streptococcus pyogenes, S. pyogenes MMX 5091); 32 µg/mL (≈ 88.6 µM) in [4] (E. faecalis MMX 8960, VRE); 64 µg/mL (≈ 177 µM) in [4] (E. faecalis MMX 8961, VRE). For the same compound, the MIC in data set [4] (E. faecalis MMX 8962, VRE) was 64 µg/mL (≈ 177 µM); in data set [4] (E. faecium MMX 485, VRE vanA), greater than 64 µg/mL; in data set [4] (E. faecium MMX 752, VRE vanA), greater than 64 µg/mL.

Regarding `Cc1onc(-c2ccccc2)c1C(=O)N[C@@H]1C(=O)N2[C@@H]1SC(C)(C)[C@@H]2C(=O)O` [Oxacillin], in [3], the “CLSI QC range of MIC” value is “(0.12-0.25) μg/mL”.

For the compound `C1C[S][Bi]([S]CC[S][Bi]2[S]CC[S]2)[S]1` [X-ray amorphous BisEDT], the “Temperature cycling DSC: broad, weak endotherm (approximate peak max)” value in data set [10] (Cycle 1, heat to 85° C.) is “Broad, weak endotherm at 75 °C”. In addition, the “Temperature cycling DSC: small endotherm (peak max)” value in [10] (Cycle 4, heat to 130° C., 10° C./min) was “Small endotherm at 112 °C (peak max)”. In addition, the “Temperature cycling DSC: sharp exotherm (peak max)” value in data set [10] (Cycle 7, heat to 200° C., 10° C./min) is “Sharp exotherm at 160 °C (peak max)”. In data set [10] (conventional DSC), the “DSC: broad endotherm (peak max)” value is “Broad endotherm at 64 °C (peak max)”, the “DSC: sharp strong exotherm (peak max)” value was “Sharp strong exotherm at 168 °C”, the “DSC: small endotherm (peak max)” value was “Small endotherm at 112 °C (peak max)” and the “DSC: small exotherm (peak max)” value was “Small exotherm at 145 °C (peak max)”. Besides, in [10] (setting [15]), the “Modulated DSC: broad weak endotherm (peak max)” value was “Broad weak endotherm at 47 °C”, the “Modulated DSC: heat flow fluctuations” value is “Heat flow fluctuations above 140 °C”, the “Modulated DSC: small endotherm (peak max)” value is “Small endotherm at 104 °C (peak max)” and the “Modulated DSC: small exotherm (peak max)” value is “Small exotherm at 134 °C (peak max)”. For the same compound, the “Modulated DSC: Tg (midpoint of step change)” value in [10] (reversing heat flow) is “Tg at 101 °C (midpoint of step change)”. Also, the “Modulated DSC: ΔCp” value in data set [10] (reversing heat flow, at Tg) is recorded as “(ΔCp 0.3 J/(g*K)”.

Turning to `CCC[C@@H]1C[C@@H](C(=O)N[C@@H]([C@H]2O[C@H](SC)[C@H](O)[C@@H](O)[C@H]2O)[C@H](C)Cl)N(C)C1` [clindamycin, reference compound], the MIC in data set [11] (Bacteroides fragilis, ATCC25285, B. fragilis MMX 123 (ATCC 25285), QC) is 1 µg/mL (≈ 2.35 µM); in data set [11] (C. difficile MMX 4381 (ATCC 700057), QC, CC^1), 4 µg/mL (≈ 9.41 µM); in data set [11] (C. difficile MMX 5680 (NCTC 13336), ribotype 027, CC^1 MET^R), 4 µg/mL (≈ 9.41 µM); in [11] (C. difficile MMX 5681 (NCTC 13307), ribotype 012, CC^R) it was greater than 64 µg/mL; in data set [11] (C. difficile MMX 8272, ribotype 255, CC^1) it was 4 µg/mL (≈ 9.41 µM); in [11] (C. difficile MMX 8279, ribotype 005, CC^R), greater than 64 µg/mL. In addition, the MIC in data set [11] (C. difficile MMX 8281, ribotype 010, CC^R) was greater than 64 µg/mL; in data set [8], greater than 4 µg/mL; in [2], 0.12 µg/mL (≈ 0.282 µM); in data set [4] (E. faecalis MMX 8960, VRE), greater than 32 µg/mL; in data set [4] (E. faecalis MMX 8961, VRE) it was greater than 32 µg/mL; in [4] (E. faecalis MMX 8962, VRE) it was greater than 32 µg/mL. Further, the MIC is greater than 32 µg/mL in data set [4] (E. faecium MMX 485, VRE vanA) and greater than 32 µg/mL in data set [4] (E. faecium MMX 752, VRE vanA).

`NC[C@H]1O[C@H](O[C@H]2[C@H](O)[C@@H](O[C@H]3O[C@H](CO)[C@@H](O)[C@H](N)[C@H]3O)[C@H](N)C[C@@H]2N)[C@H](N)C[C@@H]1O` [tobramycin, Tobramycin, reference compound]: the FICB was 0.25 and 0.5 in data set [12] (B. cenocepacia 548, FIC of Tobramycin (Drug B) in combination with BisEDT); 0.5 and 1 in data set [12] (B. cenocepacia 813, FIC of Tobramycin (Drug B) in combination with BisEDT); 0.5 and 1 in data set [12] (setting [16]); 1 in [12] (B. multivorans 1795, FIC of Tobramycin (Drug B) in combination with BisEDT); 1 in data set [13] (setting [17]); 2 in [13] (setting [18]). Further, the FICB in data set [13] (setting [19]) and in data set [13] (setting [20]) was 1 throughout. Besides, the MICB was 8 µg/mL and 16 µg/mL in data set [12] (B. cenocepacia 548, MIC of Tobramycin (Drug B) in combination with BisEDT); 8 µg/mL and 16 µg/mL in data set [12] (setting [16]); greater than 256 µg/mL in data set [12] (B. multivorans 1795, MIC of Tobramycin (Drug B) in combination with BisEDT); 128 µg/mL in data set [13] (setting [17]); 256 µg/mL in [13] (setting [18]); 0.5 µg/mL in [13] (setting [19]). For the same compound, the MICB in [13] (setting [20]) is 0.0005 µg/mL. Further, the “CFU higher in cultures with sputum vs without” value in [14] was 0.5-1 log CFU/mL.
